Reference: patent publication US20100099725A1, “PEROXISOME PROLIFERATOR ACTIVATED RECEPTOR MODULATORS” (priority 2007, published 2010)

How the values were obtained:
PPARα receptor = target: T1, PPARα receptor (Homo sapiens, UniProt Q07869); assay: Binding and cotransfection studies, PPARα ("binding assay")
T1 sequence (Q07869 174-468 limits assumed): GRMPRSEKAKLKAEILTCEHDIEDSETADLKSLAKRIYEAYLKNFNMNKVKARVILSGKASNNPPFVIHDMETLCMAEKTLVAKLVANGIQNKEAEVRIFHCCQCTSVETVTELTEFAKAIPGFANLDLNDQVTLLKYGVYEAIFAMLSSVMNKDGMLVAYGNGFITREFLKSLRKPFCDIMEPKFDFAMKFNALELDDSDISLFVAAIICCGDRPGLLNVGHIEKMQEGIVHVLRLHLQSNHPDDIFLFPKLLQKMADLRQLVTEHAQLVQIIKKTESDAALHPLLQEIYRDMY
Procedure: (§1) DNA-dependent binding (ABCD binding) is carried out using SPA technology with PPAR receptors. Tritium-labeled PPARCX agonists are used as radioligands for generating displacement curves and IC50 values with compounds of the invention. Cotransfection assays are carried out in CV-1 cells. The reporter plasmid contains an acylCoA oxidase (AOX) PPRE and TK promoter upstream of the luciferase reporter cDNA. Appropriate PPARs are constitutively expressed using plasmids containing the CMV promoter. For PPARα, interference by endogenous PPARγ in CV-1 cells is an issue. In order to eliminate such interference, a GAL4 chimeric system is used in which the DNA binding domain of the transfected PPAR is replaced by that of GAL4, and the GAL4 response element is utilized in place of the AOX PPRE. Cotransfection efficacy is determined relative to PPARα agonist reference molecules. Efficacies are determined by computer fit to a concentration-response curve, or in some cases at a single high concentration of agonist (10 μM).
(§2) These studies are carried out to evaluate the ability of compounds of the invention to bind to and/or activate various nuclear transcription factors, particularly huPPARα (“hu” indicates “human”). These studies provide in vitro data concerning efficacy and selectivity of compounds of the invention. Furthermore, binding and cotransfection data for compounds of the invention are compared with corresponding data for marketed compounds that act on huPPARα.

PPARδ receptor = target: T2, PPARδ receptor (Homo sapiens, UniProt Q03181); assay: Binding and cotransfection studies, PPARδ ("binding assay")
T2 sequence (Q03181 1-441): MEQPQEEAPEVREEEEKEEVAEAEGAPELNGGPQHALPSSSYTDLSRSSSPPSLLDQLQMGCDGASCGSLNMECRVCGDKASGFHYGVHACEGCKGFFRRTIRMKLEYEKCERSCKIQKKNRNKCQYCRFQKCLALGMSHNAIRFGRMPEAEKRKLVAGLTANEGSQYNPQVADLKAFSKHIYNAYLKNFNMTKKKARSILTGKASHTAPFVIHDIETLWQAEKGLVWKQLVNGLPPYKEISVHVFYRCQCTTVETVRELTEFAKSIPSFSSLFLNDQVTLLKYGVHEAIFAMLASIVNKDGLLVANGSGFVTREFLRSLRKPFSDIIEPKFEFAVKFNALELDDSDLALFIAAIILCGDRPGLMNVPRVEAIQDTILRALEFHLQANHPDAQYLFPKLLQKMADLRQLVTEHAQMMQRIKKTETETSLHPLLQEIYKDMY
Procedure: as §1, §2

[1] = target: T3, PXR (human SXR ligand binding domain) (Homo sapiens, UniProt O75469); assay: PXR Assay: GAL4PXR/GAL4 response element reporter assay in HuH7 cells; type: cell-based; settings: 24 h, versus maximum stimulation with rifampicin
T3 construct: expressed in transfected cells; host or cells: HuH7 (human liver) cells
T3 sequence (O75469 146-433 limits assumed): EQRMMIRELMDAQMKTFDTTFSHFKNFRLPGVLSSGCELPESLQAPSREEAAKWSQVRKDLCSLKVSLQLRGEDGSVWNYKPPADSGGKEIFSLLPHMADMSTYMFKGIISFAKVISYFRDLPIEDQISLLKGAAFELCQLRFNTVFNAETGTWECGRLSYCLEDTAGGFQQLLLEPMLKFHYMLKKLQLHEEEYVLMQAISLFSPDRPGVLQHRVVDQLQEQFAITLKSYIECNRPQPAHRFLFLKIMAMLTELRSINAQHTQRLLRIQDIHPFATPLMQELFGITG
Procedure: PXR Assay: GAL4PXR/GAL4 Response Element Reporter Assays in HuH7 Cells:
Human liver HuH7 cells are co-transfected using Fugene. The reporter plasmid, containing five Gal4 binding site and major late promoter of adenovirus upstream of the luciferase reporter cDNA, is transfected with a plasmid constitutively expressing a hybrid receptor consistent of GAL4 DNA binding domain and human SXR ligand binding domain using viral SV40 early promoter. Cells are transfected with 10 μg of total DNA/10^6 cells in T225 cm^2 flasks in DMEM:F12 (3:1) media with 10% charcoal-stripped Fetal Bovine Serum (FBS). After an overnight incubation, transfected cells are trypsinized, plated in 96 well dishes in DMEM:F12 (3:1) media with 10% charcoal-stripped FBS, incubated for 4 h and then exposed to 0.8 nM to 50 μM of test compounds in half log dilutions. After 24 h of incubations with compounds, cells are lysed and luciferase activity is determined Data is fit to a 4 parameter-fit logistics to determine EC50 values. The % efficacy is determined versus maximum stimulation obtained with rifampicin.

[2] = target: T4, Pregnane X Receptor (PXR) (Homo sapiens, UniProt O75469); settings: reported in background section; cited from earlier work
T4 sequence (O75469 1-434): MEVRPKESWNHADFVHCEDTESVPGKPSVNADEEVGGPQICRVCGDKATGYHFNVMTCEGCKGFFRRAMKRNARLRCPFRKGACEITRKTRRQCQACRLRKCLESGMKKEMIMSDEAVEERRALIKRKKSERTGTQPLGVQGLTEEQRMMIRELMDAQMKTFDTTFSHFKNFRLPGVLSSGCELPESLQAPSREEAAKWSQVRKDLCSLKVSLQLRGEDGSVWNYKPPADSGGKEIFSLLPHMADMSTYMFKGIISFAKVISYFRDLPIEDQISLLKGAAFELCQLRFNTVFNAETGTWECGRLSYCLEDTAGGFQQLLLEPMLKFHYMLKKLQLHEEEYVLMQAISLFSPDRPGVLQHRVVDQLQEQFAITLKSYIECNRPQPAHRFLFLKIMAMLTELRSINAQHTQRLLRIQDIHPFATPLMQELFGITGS

| EC50 (PPARα receptor) [nM] | EC50 (PPARδ receptor) [nM] | PXR (% efficacy versus max stimulation with Rifampicin) [1] [%] | SMILES | PXR activation [2] |
| --- | --- | --- | --- | --- |
| 872 | 46.4 | 13.5 | CC(C)(Oc1ccc(OC(CCCC(F)(F)F)c2nn(-c3ccc(C(F)(F)F)cc3)c(=O)n2-c2c(F)cccc2F)cc1)C(=O)O (racemic) [Example 57, 2-(4-{1-[4-(2,6-Difluoro-phenyl)-5-oxo-1-(4-trifluoromethyl-phenyl)-4,5-dihydro-1H-[1,2,4]triazol-3-yl]-5,5,5-trifluoro-pentyloxy}-phenoxy)-2-methyl-propionic acid] | – |
| 19.5 | 14 | 57.8 | Cc1cc(OCc2nn(-c3ccc(C(F)(F)F)cc3)c(=O)n2-c2ccccc2F)ccc1OC(C)(C)C(=O)O [Example 13] | – |
| 309 | 63.4 | 32.4 | Cc1cc(OCc2nn(-c3ccc(C(F)(F)F)cc3)c(=O)n2C(C)C)ccc1OC(C)(C)C(=O)O [Example 1, 2-{4-[4-Isopropyl-5-oxo-1-(4-trifluoromethyl-phenyl)-4,5-dihydro-1H-[1,2,4]triazol-3-ylmethoxy]-2-methyl-phenoxy}-2-methyl-propionic acid] | – |
| 256 | 297 | 52.8 | COCCn1c(COc2ccc(OC(C)(C)C(=O)O)c(C)c2)nn(-c2ccc(C(F)(F)F)cc2)c1=O [Example 2, 2-{4-[4-(2-Methoxy-ethyl)-5-oxo-1-(4-trifluoromethyl-phenyl)-4,5-dihydro-1H-[1,2,4]triazol-3-ylmethoxy]-2-methyl-phenoxy}-2-methyl-propionic acid] | – |
| – | – | – | Cc1c(C)c2c(c(C)c1O)CCC(C)(COc1ccc(CC3SC(=O)NC3=O)cc1)O2 (stereo not shown) [troglitazone] | activated the Pregnane X Receptor (PXR) |
